{"source": "patent US3940479A", "about": "(Meiji Seika Kaisha, Ltd., priority 1974, dated 1976)", "data": [{"test_system": "Bacillus polymyxa BN-109", "assay": "Sensitivity of producing strain BN-109 towards antibiotics (disc method)", "type": "cell-based", "description": "14. Sensitivity towards antibiotics (disc method):", "values": [{"compound": "[H]/N=C(/N)N[C@H]1[C@H](O)[C@@H](O)[C@H](O[C@@H]2O[C@@H](C)[C@](O)(C=O)[C@H]2O[C@@H]2O[C@@H](CO)[C@H](O)[C@@H](O)[C@@H]2NC)[C@@H](N/C(N)=N\\[H])[C@@H]1O", "note": "[Streptomycin]", "Sensitivity towards antibiotics": "Sensitive"}, {"compound": "O=C(Cc1cccs1)N[C@@H]1C(=O)N2C(C(=O)[O-])=C(C[n+]3ccccc3)CS[C@H]12", "note": "[cephalolidin]", "Sensitivity towards antibiotics": "Sensitive"}, {"compound": "O=C(N[C@H](CO)[C@H](O)c1ccc([N+](=O)[O-])cc1)C(Cl)Cl", "note": "[chloramphenical]", "Sensitivity towards antibiotics": "Sensitive"}, {"compound": "CC[C@H]1OC(=O)[C@H](C)[C@@H](O[C@H]2C[C@@](C)(OC)[C@@H](O)[C@H](C)O2)[C@H](C)[C@@H](O[C@@H]2O[C@H](C)C[C@H](N(C)C)[C@H]2O)[C@](C)(O)C[C@@H](C)C(=O)[C@H](C)[C@@H](O)[C@]1(C)O", "note": "[erythromycin]", "Sensitivity towards antibiotics": "Sensitive"}, {"compound": "NC[C@H]1O[C@H](O[C@H]2[C@H](O)[C@@H](O[C@H]3O[C@H](CO)[C@@H](O)[C@H](N)[C@H]3O)[C@H](N)C[C@@H]2N)[C@H](O)[C@@H](O)[C@@H]1O", "note": "[kanamycin]", "Sensitivity towards antibiotics": "Sensitive"}, {"compound": "CCn1cc(C(=O)O)c(=O)c2ccc(C)nc21", "note": "[nalidixic acid]", "Sensitivity towards antibiotics": "Sensitive"}, {"compound": "CC1(C)S[C@@H]2[C@H](NC(=O)Cc3ccccc3)C(=O)N2[C@H]1C(=O)O", "note": "[penicillin]", "Sensitivity towards antibiotics": "Sensitive"}, {"compound": "CN(C)C1C(=O)C(C(N)=O)=C(O)C2(O)C(=O)C3=C(O)c4c(O)cccc4C(C)(O)C3CC12", "note": "(centres unmarked) [tetracyclin]", "Sensitivity towards antibiotics": "Sensitive"}, {"compound": "NC[C@H]1O[C@H](O[C@H]2[C@H](O[C@@H]3O[C@H](CO)[C@@H](O)[C@H]3O)[C@@H](O)[C@H](N)C[C@@H]2N)[C@H](N)[C@@H](O)[C@@H]1O", "note": "[vistamycin]", "Sensitivity towards antibiotics": "Sensitive"}, {"compound": "Polymyxin B", "Sensitivity towards antibiotics": "Resistant"}, {"compound": "colistin", "Sensitivity towards antibiotics": "Resistant"}]}]}
